The nature of one data set: in vitro. The conditions noted are these: dog, MDCK-MDR1.
Another data set is described as follows: physchem. Particulars: buffer, pH 7.4.
The nature of another data set: in vivo. Particulars: male, CD1, mouse, brain and plasma, po.

Structures are written as SMILES.

The term Papp A→B denotes the apparent permeability from the apical to the basolateral side of a cell layer. Broadly, the chromatographic logD is lipophilicity estimated from chromatographic retention. Read a low chromatographic logD as a more hydrophilic compound. Take `CN1C[C@H](Nc2nnc(-c3ccc(C(F)(F)F)cc3O)c3ccnn23)CC(F)(F)C1`: in “in vitro”, the apparent permeability from apical to basolateral (Papp A→B) was determined as 130 nm/s. The compound also came in with a chromatographic logD in the data set “physchem” of 3.85.
Compound `Cc1cc(C(F)(F)F)cc(O)c1-c1nnc(N[C@@H]2CCCN(C)C2)n2nccc12` gave a Papp A→B in the data set “in vitro” of 260 nm/s. Moreover, the Kp uu in the data set “in vivo” was 0.056. The same compound gave a chromatographic logD in the data set “physchem” of 1.73.

The values above are taken from ChEMBL document CHEMBL6153123, “Discovery of Potent and Brain-Penetrant Bicyclic NLRP3 Inhibitors with Peripheral and Central In Vivo Activity” (J Med Chem, 2025).
